Source: the NIST ThermoML archive (doi:10.1016/j.tca.2004.08.001)
Numbers after ± are expanded uncertainties.

Legend:
[1] = 101.33 kPa, Liquid; for speed of sound: Linear variable-path acoustic interferometer
[2] = refractive index (Na D-line) (dimensionless); conditions: 101.33 kPa, Liquid, Standard Abbe refractometry
[3] = xn = mol fraction of the nth substance listed; conditions: 303.15 K, 101.3 kPa, Liquid; for speed of sound: Linear variable-path acoustic interferometer
[4] = refractive index (Na D-line) (dimensionless); xn = mol fraction of the nth substance listed; conditions: 303.15 K, 101.3 kPa, Liquid, Standard Abbe refractometry

With `CCOC(C)=O` [ethyl acetate] the mass density ([1]; 303.15 K) was 888.55 ± 0.44 kg/m3, the viscosity ([1]; 303.15 K) was 0.4043 ± 0.0068 mPa·s and the speed of sound ([1]; 303.15 K) was 1117 ± 2 m/s. It also gave a refractive index ([2]; 303.15 K) of 1.3664 ± 0.0007.

Work on `ClC(Cl)C(Cl)Cl` [1,1,2,2-tetrachloroethane] + C1CCOC1 yielded a speed of sound ([3]; x2 = 0.1023) of 1138 ± 2 m/s, a speed of sound ([3]; x2 = 0.2128) of 1143 ± 2 m/s and a speed of sound ([3]; x2 = 0.3093) of 1149 ± 2 m/s. For the same molecule, the speed of sound ([3]; x2 = 0.4056) was 1157 ± 2 m/s, the speed of sound ([3]; x2 = 0.5093) was 1168 ± 2 m/s and the speed of sound ([3]; x2 = 0.6032) was 1180 ± 2 m/s. For the same molecule, the speed of sound ([3]; x2 = 0.7046) was 1195 ± 2 m/s, the speed of sound ([3]; x2 = 0.8008) was 1212 ± 2 m/s and the speed of sound ([3]; x2 = 0.8973) was 1231 ± 2 m/s. The mass density ([3]; x2 = 0.1023) was 1523.21 ± 1.2 kg/m3, the viscosity ([3]; x2 = 0.1023) was 1.389 ± 0.017 mPa·s and the mass density ([3]; x2 = 0.2128) was 1460.02 ± 1.1 kg/m3. The viscosity ([3]; x2 = 0.2128) was 1.307 ± 0.016 mPa·s, the mass density ([3]; x2 = 0.3093) was 1401.59 ± 1 kg/m3 and the viscosity ([3]; x2 = 0.3093) was 1.227 ± 0.015 mPa·s. For the same molecule, the mass density ([3]; x2 = 0.4056) was 1340.18 ± 0.9 kg/m3, the viscosity ([3]; x2 = 0.4056) was 1.136 ± 0.014 mPa·s and the mass density ([3]; x2 = 0.5093) was 1270.31 ± 0.8 kg/m3. It also gave a viscosity ([3]; x2 = 0.5093) of 1.029 ± 0.013 mPa·s, a mass density ([3]; x2 = 0.6032) of 1203.28 ± 0.66 kg/m3 and a viscosity ([3]; x2 = 0.6032) of 0.9116 ± 0.012 mPa·s. For the same molecule, the mass density ([3]; x2 = 0.7046) was 1126.91 ± 0.49 kg/m3, the viscosity ([3]; x2 = 0.7046) was 0.786 ± 0.01 mPa·s and the mass density ([3]; x2 = 0.8008) was 1050.12 ± 0.33 kg/m3. The viscosity ([3]; x2 = 0.8008) was 0.6647 ± 0.0091 mPa·s, the mass density ([3]; x2 = 0.8973) was 968.58 ± 0.26 kg/m3 and the viscosity ([3]; x2 = 0.8973) was 0.5519 ± 0.008 mPa·s. The refractive index ([4]; x2 = 0.1023) was 1.483 ± 0.0008, the refractive index ([4]; x2 = 0.2128) was 1.476 ± 0.0008 and the refractive index ([4]; x2 = 0.3093) was 1.4701 ± 0.0008. For the same molecule, the refractive index ([4]; x2 = 0.4056) was 1.4639 ± 0.0008, the refractive index ([4]; x2 = 0.5093) was 1.4556 ± 0.0008 and the refractive index ([4]; x2 = 0.6032) was 1.4472 ± 0.0008. For the same molecule, the refractive index ([4]; x2 = 0.7046) was 1.4368 ± 0.0008, the refractive index ([4]; x2 = 0.8008) was 1.4268 ± 0.0008 and the refractive index ([4]; x2 = 0.8973) was 1.416 ± 0.0008.

`ClC(Cl)Cl` [trichloromethane] + C1CCOC1 gave a speed of sound ([3]; x2 = 0.1023) of 986 ± 2 m/s, a speed of sound ([3]; x2 = 0.2085) of 1006 ± 2 m/s and a speed of sound ([3]; x2 = 0.3045) of 1024 ± 2 m/s. The speed of sound ([3]; x2 = 0.4278) was 1051 ± 2 m/s, the speed of sound ([3]; x2 = 0.5003) was 1070 ± 2 m/s and the speed of sound ([3]; x2 = 0.6047) was 1102 ± 2 m/s. The speed of sound ([3]; x2 = 0.6976) was 1133 ± 2 m/s, the speed of sound ([3]; x2 = 0.8077) was 1174 ± 2 m/s and the speed of sound ([3]; x2 = 0.8921) was 1208 ± 2 m/s. The mass density ([3]; x2 = 0.1023) was 1410.89 ± 1 kg/m3, the viscosity ([3]; x2 = 0.1023) was 0.5307 ± 0.0079 mPa·s and the mass density ([3]; x2 = 0.2085) was 1349.01 ± 0.89 kg/m3. The viscosity ([3]; x2 = 0.2085) was 0.5467 ± 0.008 mPa·s, the mass density ([3]; x2 = 0.3045) was 1292.84 ± 0.79 kg/m3 and the viscosity ([3]; x2 = 0.3045) was 0.5566 ± 0.0081 mPa·s. For the same molecule, the mass density ([3]; x2 = 0.4278) was 1220.11 ± 0.67 kg/m3, the viscosity ([3]; x2 = 0.4278) was 0.559 ± 0.0081 mPa·s and the mass density ([3]; x2 = 0.5003) was 1176.98 ± 0.61 kg/m3. For the same molecule, the viscosity ([3]; x2 = 0.5003) was 0.558 ± 0.0081 mPa·s, the mass density ([3]; x2 = 0.6047) was 1114.67 ± 0.47 kg/m3 and the viscosity ([3]; x2 = 0.6047) was 0.5445 ± 0.008 mPa·s. It also gave a mass density ([3]; x2 = 0.6976) of 1058.96 ± 0.35 kg/m3, a viscosity ([3]; x2 = 0.6976) of 0.5245 ± 0.0078 mPa·s and a mass density ([3]; x2 = 0.8077) of 992.59 ± 0.24 kg/m3. The viscosity ([3]; x2 = 0.8077) was 0.4955 ± 0.0075 mPa·s, the mass density ([3]; x2 = 0.8921) was 941.69 ± 0.3 kg/m3 and the viscosity ([3]; x2 = 0.8921) was 0.4676 ± 0.0073 mPa·s. It also gave a refractive index ([4]; x2 = 0.1023) of 1.438 ± 0.0008, a refractive index ([4]; x2 = 0.2085) of 1.4346 ± 0.0008 and a refractive index ([4]; x2 = 0.3045) of 1.4315 ± 0.0008. For the same molecule, the refractive index ([4]; x2 = 0.4278) was 1.4273 ± 0.0008, the refractive index ([4]; x2 = 0.5003) was 1.4251 ± 0.0008 and the refractive index ([4]; x2 = 0.6047) was 1.421 ± 0.0008. The refractive index ([4]; x2 = 0.6976) was 1.4168 ± 0.0008, the refractive index ([4]; x2 = 0.8077) was 1.4121 ± 0.0008 and the refractive index ([4]; x2 = 0.8921) was 1.4079 ± 0.0008.

`CCCCCCCl` [1-chlorohexane] showed a mass density ([1]; 298.15 K) of 873.47 ± 0.53 kg/m3, a mass density ([1]; 303.15 K) of 868.78 ± 0.43 kg/m3 and a viscosity ([1]; 303.15 K) of 0.6544 ± 0.009 mPa·s. The speed of sound ([1]; 303.15 K) was 1184 ± 2 m/s, the refractive index ([2]; 298.15 K) was 1.4197 ± 0.0007 and the refractive index ([2]; 303.15 K) was 1.4168 ± 0.0007.

In the case of `CCCCOC(C)=O` [butyl ethanoate] + C1CCOC1, the speed of sound ([3]; x2 = 0.1033) is reported as 1177 ± 2 m/s, the speed of sound ([3]; x2 = 0.1989) is reported as 1182 ± 2 m/s and the speed of sound ([3]; x2 = 0.3041) is reported as 1188 ± 2 m/s. The speed of sound ([3]; x2 = 0.3995) was 1194 ± 2 m/s, the speed of sound ([3]; x2 = 0.4967) was 1201 ± 2 m/s and the speed of sound ([3]; x2 = 0.6013) was 1210 ± 2 m/s. It also gave a speed of sound ([3]; x2 = 0.6979) of 1219 ± 2 m/s, a speed of sound ([3]; x2 = 0.7978) of 1229 ± 2 m/s and a speed of sound ([3]; x2 = 0.8999) of 1241 ± 2 m/s. For the same molecule, the mass density ([3]; x2 = 0.1033) was 871.17 ± 0.43 kg/m3, the viscosity ([3]; x2 = 0.1033) was 0.6261 ± 0.0087 mPa·s and the mass density ([3]; x2 = 0.1989) was 871.58 ± 0.43 kg/m3. For the same molecule, the viscosity ([3]; x2 = 0.1989) was 0.6085 ± 0.0086 mPa·s, the mass density ([3]; x2 = 0.3041) was 872.04 ± 0.43 kg/m3 and the viscosity ([3]; x2 = 0.3041) was 0.5892 ± 0.0084 mPa·s. For the same molecule, the mass density ([3]; x2 = 0.3995) was 872.51 ± 0.43 kg/m3, the viscosity ([3]; x2 = 0.3995) was 0.5762 ± 0.0083 mPa·s and the mass density ([3]; x2 = 0.4967) was 873.01 ± 0.43 kg/m3. It also gave a viscosity ([3]; x2 = 0.4967) of 0.5573 ± 0.0081 mPa·s, a mass density ([3]; x2 = 0.6013) of 873.59 ± 0.43 kg/m3 and a viscosity ([3]; x2 = 0.6013) of 0.5346 ± 0.0079 mPa·s. The mass density ([3]; x2 = 0.6979) was 874.18 ± 0.43 kg/m3, the viscosity ([3]; x2 = 0.6979) was 0.5107 ± 0.0077 mPa·s and the mass density ([3]; x2 = 0.7978) was 874.96 ± 0.42 kg/m3. It also gave a viscosity ([3]; x2 = 0.7978) of 0.4893 ± 0.0075 mPa·s, a mass density ([3]; x2 = 0.8999) of 875.79 ± 0.42 kg/m3 and a viscosity ([3]; x2 = 0.8999) of 0.4644 ± 0.0073 mPa·s. It also gave a refractive index ([4]; x2 = 0.1033) of 1.3911 ± 0.0008, a refractive index ([4]; x2 = 0.1989) of 1.3924 ± 0.0008 and a refractive index ([4]; x2 = 0.3041) of 1.3941 ± 0.0008. The refractive index ([4]; x2 = 0.3995) was 1.3954 ± 0.0008, the refractive index ([4]; x2 = 0.4967) was 1.397 ± 0.0008 and the refractive index ([4]; x2 = 0.6013) was 1.3979 ± 0.0008. For the same molecule, the refractive index ([4]; x2 = 0.6979) was 1.3991 ± 0.0008, the refractive index ([4]; x2 = 0.7978) was 1.4005 ± 0.0008 and the refractive index ([4]; x2 = 0.8999) was 1.4018 ± 0.0008.

For `ClC(Cl)C(Cl)Cl` [1,1,2,2-tetrachloroethane], the mass density ([1]; 303.15 K) was 1578.6 ± 0.44 kg/m3, the viscosity ([1]; 303.15 K) was 1.457 ± 0.018 mPa·s and the speed of sound ([1]; 303.15 K) was 1135 ± 2 m/s. For the same molecule, the refractive index ([2]; 303.15 K) was 1.4881 ± 0.0007.

With `CCCCCCBr` [1-bromohexane] + C1CCOC1 the speed of sound ([3]; x2 = 0.0976) was 1087 ± 2 m/s, the speed of sound ([3]; x2 = 0.3008) was 1119 ± 2 m/s and the speed of sound ([3]; x2 = 0.4975) was 1154 ± 2 m/s. For the same molecule, the speed of sound ([3]; x2 = 0.696) was 1194 ± 2 m/s, the speed of sound ([3]; x2 = 0.9) was 1235 ± 2 m/s and the mass density ([3]; x2 = 0.0976) was 1146.32 ± 0.47 kg/m3. The viscosity ([3]; x2 = 0.0976) was 0.8602 ± 0.011 mPa·s, the mass density ([3]; x2 = 0.3008) was 1107.3 ± 0.4 kg/m3 and the viscosity ([3]; x2 = 0.3008) was 0.7753 ± 0.01 mPa·s. It also gave a mass density ([3]; x2 = 0.4975) of 1061.2 ± 0.34 kg/m3, a viscosity ([3]; x2 = 0.4975) of 0.6995 ± 0.0094 mPa·s and a mass density ([3]; x2 = 0.696) of 1002.92 ± 0.23 kg/m3. The viscosity ([3]; x2 = 0.696) was 0.6258 ± 0.0087 mPa·s, the mass density ([3]; x2 = 0.9) was 924.62 ± 0.33 kg/m3 and the viscosity ([3]; x2 = 0.9) was 0.5054 ± 0.0076 mPa·s. The refractive index ([4]; x2 = 0.0976) was 1.442 ± 0.0008, the refractive index ([4]; x2 = 0.3008) was 1.4368 ± 0.0008 and the refractive index ([4]; x2 = 0.4975) was 1.4307 ± 0.0008. It also gave a refractive index ([4]; x2 = 0.696) of 1.4223 ± 0.0008 and a refractive index ([4]; x2 = 0.9) of 1.4105 ± 0.0008.

In the case of `COC(C)=O` [methyl ethanoate], the mass density ([1]; 303.15 K) is reported as 920.83 ± 0.4 kg/m3, the viscosity ([1]; 303.15 K) is reported as 0.343 ± 0.0063 mPa·s and the speed of sound ([1]; 303.15 K) is reported as 1136 ± 2 m/s. The refractive index ([2]; 303.15 K) was 1.3567 ± 0.0007.
